In ChEMBL document CHEMBL1124529, “Sodium channel binding and anticonvulsant activities for the enantiomers of a bicyclic 2,4-oxazolidinedione and monocyclic models” (J Med Chem, 1989):

Legend:
[1] = test system: Mus musculus; test: Anticonvulsant activity of the compound, 0.5 hr after administration in maximal electroshock mice model; assay type: functional
[2] = test system: Mus musculus; test: Anticonvulsant activity of the compound, 0.5 hr after administration of compound in mice subjected to subcutaneous metrazole challenge (85 mg/kg); assay type: functional; details: sc
[3] = Anticonvulsant activity of the compound,0.5 hr after administration in mice subjected to rotarod toxicity test; assay type: organism-based; details: mouse, in vivo
[4] = biological target: T1, Sodium channel alpha subunits; brain (Types I, II, III) (Rattus norvegicus) (UniProt P04775+P04774+P08104); test: Displacement of [3H]BTX-B from rat cerebral cortex voltage-gated sodium channel, 0.5 hr after 500 uM; assay type: tissue-based
[5] = biological target: T1, Sodium channel alpha subunits; brain (Types I, II, III) (Rattus norvegicus); test: Displacement of [3H]BTX-B from rat cerebral cortex voltage-gated sodium channel, 0.25 hr after 160 uM; assay type: tissue-based
[6] = species on record: Mus musculus; test: Anticonvulsant activity when mice were subjected to maximal electroshock; assay type: functional
[7] = Anticonvulsant activity of the compound,0.25 h after administration in mice subjected to rotarod toxicity test; assay type: organism-based; details: mouse, in vivo
[8] = biological target: T1, Sodium channel alpha subunits; brain (Types I, II, III) (Rattus norvegicus); test: Displacement of [3H]BTX-B from rat cerebral cortex voltage-gated sodium channel, 0.5 hr after 190 uM; assay type: tissue-based

T1 sequence (P04775 whole entry, looked up, other chains not shown): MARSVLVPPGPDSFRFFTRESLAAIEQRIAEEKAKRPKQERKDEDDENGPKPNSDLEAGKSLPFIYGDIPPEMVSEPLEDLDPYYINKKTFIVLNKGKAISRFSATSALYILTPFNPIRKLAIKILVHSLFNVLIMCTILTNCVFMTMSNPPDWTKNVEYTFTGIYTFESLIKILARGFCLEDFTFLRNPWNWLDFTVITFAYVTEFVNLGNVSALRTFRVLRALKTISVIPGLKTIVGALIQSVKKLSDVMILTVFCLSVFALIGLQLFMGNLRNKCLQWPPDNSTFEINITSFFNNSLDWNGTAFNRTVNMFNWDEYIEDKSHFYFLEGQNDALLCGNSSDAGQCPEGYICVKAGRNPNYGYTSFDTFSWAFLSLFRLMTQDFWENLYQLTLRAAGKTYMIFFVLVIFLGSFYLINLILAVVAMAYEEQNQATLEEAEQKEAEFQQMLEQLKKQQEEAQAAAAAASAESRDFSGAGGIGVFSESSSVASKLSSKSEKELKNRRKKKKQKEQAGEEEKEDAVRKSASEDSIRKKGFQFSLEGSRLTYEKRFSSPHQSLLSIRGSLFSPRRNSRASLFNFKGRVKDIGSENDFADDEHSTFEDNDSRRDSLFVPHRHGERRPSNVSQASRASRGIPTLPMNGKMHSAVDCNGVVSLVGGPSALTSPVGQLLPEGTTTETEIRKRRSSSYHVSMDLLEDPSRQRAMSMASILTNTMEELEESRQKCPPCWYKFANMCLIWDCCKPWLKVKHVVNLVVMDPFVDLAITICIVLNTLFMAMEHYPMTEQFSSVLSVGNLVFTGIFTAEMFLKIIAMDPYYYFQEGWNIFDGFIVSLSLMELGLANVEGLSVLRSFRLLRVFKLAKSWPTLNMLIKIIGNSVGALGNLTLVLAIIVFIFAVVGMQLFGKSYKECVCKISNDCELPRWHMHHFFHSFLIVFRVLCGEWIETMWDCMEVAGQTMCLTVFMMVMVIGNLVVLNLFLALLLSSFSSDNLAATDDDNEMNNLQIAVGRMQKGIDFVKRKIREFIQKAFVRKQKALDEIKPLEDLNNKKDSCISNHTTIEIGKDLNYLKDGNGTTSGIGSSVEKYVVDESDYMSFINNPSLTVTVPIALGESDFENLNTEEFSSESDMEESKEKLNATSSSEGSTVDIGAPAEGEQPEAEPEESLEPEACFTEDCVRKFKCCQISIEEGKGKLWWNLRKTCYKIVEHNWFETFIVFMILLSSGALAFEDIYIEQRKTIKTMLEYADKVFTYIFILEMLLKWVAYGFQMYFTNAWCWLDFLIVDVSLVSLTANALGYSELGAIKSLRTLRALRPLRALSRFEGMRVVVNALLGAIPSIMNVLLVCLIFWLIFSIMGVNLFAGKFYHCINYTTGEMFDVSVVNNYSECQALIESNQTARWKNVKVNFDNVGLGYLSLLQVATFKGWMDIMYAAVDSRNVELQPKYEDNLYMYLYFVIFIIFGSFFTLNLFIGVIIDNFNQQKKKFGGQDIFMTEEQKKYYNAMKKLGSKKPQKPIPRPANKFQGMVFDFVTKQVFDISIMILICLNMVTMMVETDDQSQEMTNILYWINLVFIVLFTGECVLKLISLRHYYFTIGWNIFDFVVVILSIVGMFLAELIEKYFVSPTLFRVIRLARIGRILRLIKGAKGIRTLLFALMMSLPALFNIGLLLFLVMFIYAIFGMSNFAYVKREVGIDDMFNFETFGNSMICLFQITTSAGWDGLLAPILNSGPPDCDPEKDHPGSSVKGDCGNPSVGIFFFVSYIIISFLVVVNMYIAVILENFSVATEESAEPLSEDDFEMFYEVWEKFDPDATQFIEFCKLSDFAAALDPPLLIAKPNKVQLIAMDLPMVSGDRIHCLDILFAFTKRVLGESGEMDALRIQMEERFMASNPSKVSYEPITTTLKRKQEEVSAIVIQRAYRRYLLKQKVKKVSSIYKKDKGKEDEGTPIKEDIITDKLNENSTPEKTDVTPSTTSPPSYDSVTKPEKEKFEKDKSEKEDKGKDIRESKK
T1 sequence (P08104 whole entry, looked up, other chains not shown): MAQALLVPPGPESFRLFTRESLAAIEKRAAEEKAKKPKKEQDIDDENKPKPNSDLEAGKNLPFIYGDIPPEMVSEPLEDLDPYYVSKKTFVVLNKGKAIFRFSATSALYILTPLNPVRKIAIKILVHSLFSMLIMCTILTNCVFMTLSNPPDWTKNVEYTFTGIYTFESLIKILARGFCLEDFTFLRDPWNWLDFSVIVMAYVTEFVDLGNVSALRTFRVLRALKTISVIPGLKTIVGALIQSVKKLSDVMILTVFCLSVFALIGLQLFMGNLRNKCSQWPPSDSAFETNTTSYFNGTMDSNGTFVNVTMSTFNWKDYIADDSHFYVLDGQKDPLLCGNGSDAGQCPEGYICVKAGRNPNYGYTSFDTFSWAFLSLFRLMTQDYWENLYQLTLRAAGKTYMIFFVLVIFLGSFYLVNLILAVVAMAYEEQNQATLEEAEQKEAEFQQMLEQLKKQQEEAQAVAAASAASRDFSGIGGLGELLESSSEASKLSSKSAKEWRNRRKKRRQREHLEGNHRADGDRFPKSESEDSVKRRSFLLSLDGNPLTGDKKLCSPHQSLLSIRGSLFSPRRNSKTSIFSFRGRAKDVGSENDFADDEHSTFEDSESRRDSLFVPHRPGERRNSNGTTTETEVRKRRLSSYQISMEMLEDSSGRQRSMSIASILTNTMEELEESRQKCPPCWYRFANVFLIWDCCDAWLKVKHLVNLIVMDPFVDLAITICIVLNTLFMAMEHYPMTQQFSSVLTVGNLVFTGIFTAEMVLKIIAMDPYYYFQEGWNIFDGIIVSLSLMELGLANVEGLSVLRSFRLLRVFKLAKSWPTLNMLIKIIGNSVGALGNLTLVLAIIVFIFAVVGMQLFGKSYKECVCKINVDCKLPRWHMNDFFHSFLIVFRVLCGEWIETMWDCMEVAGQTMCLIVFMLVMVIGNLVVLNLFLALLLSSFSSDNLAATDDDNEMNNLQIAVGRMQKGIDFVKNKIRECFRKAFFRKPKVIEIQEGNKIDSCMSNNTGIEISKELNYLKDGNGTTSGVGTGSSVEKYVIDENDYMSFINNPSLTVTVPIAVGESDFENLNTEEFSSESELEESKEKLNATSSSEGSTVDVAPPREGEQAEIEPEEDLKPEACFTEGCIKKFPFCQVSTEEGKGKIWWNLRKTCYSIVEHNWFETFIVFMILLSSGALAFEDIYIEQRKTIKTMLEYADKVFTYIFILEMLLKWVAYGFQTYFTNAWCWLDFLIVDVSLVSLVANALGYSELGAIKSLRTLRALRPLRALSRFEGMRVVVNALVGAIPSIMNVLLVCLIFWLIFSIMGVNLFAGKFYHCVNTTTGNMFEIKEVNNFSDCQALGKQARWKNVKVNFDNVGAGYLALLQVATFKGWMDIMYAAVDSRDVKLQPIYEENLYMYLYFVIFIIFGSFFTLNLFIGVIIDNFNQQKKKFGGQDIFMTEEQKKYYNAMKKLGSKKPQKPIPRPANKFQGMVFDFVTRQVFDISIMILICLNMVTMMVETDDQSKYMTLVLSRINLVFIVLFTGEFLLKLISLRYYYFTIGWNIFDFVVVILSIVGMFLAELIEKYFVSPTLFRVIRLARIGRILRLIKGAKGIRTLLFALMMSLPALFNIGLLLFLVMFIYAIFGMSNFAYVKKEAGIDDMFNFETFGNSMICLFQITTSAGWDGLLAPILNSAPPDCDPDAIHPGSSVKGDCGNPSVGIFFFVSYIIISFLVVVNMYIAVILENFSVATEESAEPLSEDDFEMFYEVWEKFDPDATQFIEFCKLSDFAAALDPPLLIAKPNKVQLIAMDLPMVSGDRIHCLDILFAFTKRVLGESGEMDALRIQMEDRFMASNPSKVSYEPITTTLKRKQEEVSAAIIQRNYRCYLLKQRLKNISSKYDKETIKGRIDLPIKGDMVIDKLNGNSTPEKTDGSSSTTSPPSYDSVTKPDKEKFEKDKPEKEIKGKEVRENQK

What does the source list for `CC[C@@]1(c2ccccc2)OC(=O)N(C)C1=O`?
ED50 [1]: 188 mg/kg; ED50 [2]: 64 mg/kg; TD50 at 0.5 h [3]: 395 mg/kg; inhibition [4]: 45%

Which ED50 [1] does the source give for `CC[C@@]1(c2ccccc2)OC(=O)NC1=O` here?
The ED50 was 141 mg/kg.

What about the ED50 [2] of the same compound?
The ED50 was 42 mg/kg.

And the TD50 at 0.5 h [3]?
The TD50 at 0.5 h was 155 mg/kg.

What about the inhibition [4] of the same compound?
The inhibition was 36%.

Which ED50 [1] does the source give for `O=C1OC2(c3ccccc3)CCCCCN1C2=O` (racemic) here?
The ED50 was 66 mg/kg.

What about the ED50 [2] of the same compound?
The ED50 was 45 mg/kg.

What about the TD50 at 0.5 h [3] of the same compound?
The TD50 at 0.5 h was 147 mg/kg.

What about the inhibition [5] of the same compound?
The inhibition was 50%.

With `CC[C@]1(c2ccccc2)OC(=O)N(C)C1=O` as the compound, how does the ED50 [1] read?
Its ED50 is 122 mg/kg.

And the ED50 [2]?
The ED50 was 69 mg/kg.

What about the TD50 at 0.5 h [3] of the same compound?
Its TD50 at 0.5 h is 354 mg/kg.

What about the inhibition [4] of the same compound?
Its inhibition is 49%.

For `CC(=O)N[C@H](C(=O)NCc1ccccc1)c1ccccc1`, which ED50 [6] is on record?
Its ED50 is > 300 mg/kg.

Which ED50 [1] does the source give for `CC[C@]1(c2ccccc2)OC(=O)NC1=O` here?
The ED50 was 91 mg/kg.

What about the ED50 [2] of the same compound?
The ED50 was 108 mg/kg.

What about the TD50 at 0.5 h [3] of the same compound?
The TD50 at 0.5 h was 172 mg/kg.

What about the inhibition [4] of the same compound?
Its inhibition is 46%.

Which results are given for `O=C1O[C@]2(c3ccccc3)CCCCCN1C2=O`?
ED50 [1]: 82 mg/kg; ED50 [2]: < 400 mg/kg; TD50 at 0.25 h [7]: 334 mg/kg; inhibition [8]: 50%

For `O=C1O[C@@]2(c3ccccc3)CCCCCN1C2=O`, which ED50 [1] is on record?
Its ED50 is 45 mg/kg.

And the ED50 [2]?
Its ED50 is 50 mg/kg.

What about the TD50 at 0.5 h [3] of the same compound?
Its TD50 at 0.5 h is 84 mg/kg.

And the inhibition [8]?
Its inhibition is 50%.

Which ED50 [1] does the source give for `CCC1(c2ccccc2)OC(=O)N(C)C1=O` (racemic) here?
The ED50 was 124 mg/kg.

And the inhibition [4]?
Its inhibition is 50%.

With `CCC1(c2ccccc2)OC(=O)NC1=O` (racemic) as the compound, how does the inhibition [4] read?
The inhibition was 44%.

For `CC(=O)N[C@@H](C(=O)NCc1ccccc1)c1ccccc1`, which ED50 [6] is on record?
Its ED50 is 26 mg/kg.
